# Assay results taken from patent US20150233925A1, “Assays and Cell-Based Tests Using a Receptor Na/K-ATPase/Src Complex and Uses Thereof” (The University of Toledo, priority 2012, published 2015).
# Entries after “also recorded” stand apart in the source; their conditions may differ.
# Tests used:
# ERKs in LLC-PK1 cells = assay: Immunostaining assay for active ERK in LLC-PK1 cells; assay type: cell-based, pig; settings: pretreated cells exposed to 1 nM ouabain for 60 min
# Description: (§1) To assay for receptor antagonist, the reconstituted receptor was exposed to compounds in the presence and absence of an agonist (ouabain) and then assessed whether the compounds could antagonize ouabain-induced activation of Src. To verify that they are specific antagonists of receptor Na/K-ATPase/Src complex, their effects on ouabain-, EGF- and dopamine-induced signal transduction was measured in LLC-PK1 and PY-17 cells.
# LLC-PK1 cells were pretreated with different concentrations of MB5 for 15 min, exposed to 1 nM ouabain for 60 min, and assayed for active ERKs. A representative set of images is shown. LLC-PK1 cells were pretreated with different concentrations of MB5 for 15 min, exposed to stimuli for either 10 or 3 min, and assayed for active ERKs. A representative set of images is shown.
# The data presented in FIGS. 6C-6E show blocking ouabain-induced ERK activation by other antagonists of receptor Na/K-ATPase/Src complex. […] Both control and Tanshinone I-pretreated cells were exposed to ouabain (1 nM) for 1 hour, and processed for immuno-staining of active ERK as in FIG. 6A. A representative set of images are presented from three separate experiments.
# LLC-PK1 cells grown on coverslip were serum-starved and treated with MB5 or stimuli for indicated time. […] The signals were detected by a Leica (Wetzlar, Germany) confocal microscope. […]
# [1] = target: T1, Na/K-ATPase/Src receptor complex (Sus scrofa, UniProt P05024); assay: FRET based high throughput screen for agonists and antagonists; assay type: biochemical, pig; settings: screen with ouabain plus compounds, followed by cell-based analyses
# T1 construct: The α1 Na/K-ATPase was purified from pig kidney; tissue Upstate Biotechnology (Src only); host or cells: pig kidney (Na/K-ATPase)
# Excerpt: Referring now to FIGS. 2A and 2B, there are shown schematic illustrations of a FRET based high throughput assay for agonist and antagonist. […] A pathway-based approach is useful to screen for agonists of Na/K-ATPase/Src receptor targets. Agonist can interact with Na/K-ATPase resulting Src phosphorylation. This active Src transfers the γ-phosphate of ATP to a single tyrosine residue in the synthetic peptide substrate. Then, a site specific protease recognizes and cleaves non-phosphorylated peptides. […] Cleavage disrupts FRET on the peptide, whereas uncleaved, phosphorylated peptides maintain FRET.
# This assay is similar as the agonist screening. For example, in the presence of ouabain, antagonist can reduce ouabain induced peptide substrate phosphorylation.
# (§2) In one example, the FRET-based in vitro high throughput assay utilizes the in vitro reconstitution of receptor Na/K-ATPase and Src, and a peptide Src substrate-based FRET assay. […] To reconstitute the receptor α1 Na/K-ATPase/Src complex, purified pig kidney Na/K-ATPase was mixed with purified recombinant Src. This receptor complex has an inhibited Src activity. The binding of agonists to the receptor complex releases the inhibited Src and result in an increase in Src activity, which is measured by a peptide-based FRET analysis (FIG. 2A, FIG. 2B). To screen the agonist of receptor Na/K-ATPase/Src complex, the reconstituted receptor is exposed to compounds, and then measured for Src activation using the peptide-based FRET assay.
# The chemical library used for screening in the present study contained 100 structurally diverse, drug-like, naturally occurring organic compounds or their semisynthetic derivatives. Stock compounds were prepared at 10 mM in DMSO. The specific activities of Na/K-ATPase of various kidney preparations were in the range of 900-1,200 μmol/mg/h. The high throughput screen was conducted in a Corning 384-well low-volume assay plates at room temperature.
# The first step was Kinase Reaction with the final reaction volume of 10 μl. The purified Src (4.5 U) was incubated with 2 μg of the purified Na/K-ATPase in phosphate-buffered saline (PBS) for 5 min. Afterward, the Na/K-ATPase/Src complex was exposed to compounds to screen for agonist or ouabain 10 μM plus compounds to screen antagonists for 10 min. Then, the Src kinase substrate Tyr 2 peptide or phosphor-peptide (control) was added. The reaction was initiated by addition of 2 mM ATP/Mg^2+, continued for 60 min.
# The second step was Development Reaction. Each well was added 5 μl Development Solution, then mix the plate and incubate another 60 min. The assay was stopped by adding 5 μl stop reagent and then fluorescent signals were measured.
# [2] = test system: ouabain-induced signal transduction in cultured cells; assay: Ouabain-induced signal transduction in cultured cells; assay type: cell-based
# Description: as §1
# [3] = target: T1, Na/K-ATPase/Src receptor complex; assay: Reconstituted Na/K-ATPase/Src receptor complex, Src pY418 by Western blot (kinase activity assay of Src); assay type: biochemical, pig; settings: ouabain 1 μM, 100 μM vanade to inactivate ATPase activity
# Description: as §2
# Phosphorylation of Src pY 418, as an indicator of Src activation, was measured by Western blot. Ouabain was used at 1 μM and the assay was done in the presence of 100 μM vanade to inactivate ATPase activity. Values are mean±S.E. of at least three independent experiments. * p<0.05 compared with control. ** p<0.01 compared with control.
# as §1
# To determine whether the compound affect the Na/K-ATPase/Src receptor activity, the compounds was incubated with the purified Src (4.5 U) and 1 μg Na/K-ATPase for 15 min at 37° C. Afterward, 2 mM ATP/Mg^2+ was added. The reaction continued for 15 min at 37° C. and was stopped by addition of SDS sample buffer. Afterward, the Src pY418 was measured by anti-pY418 antibody to indicate Src activation.
# DU145 tumor xenograft = assay: DU145 xenograft tumors in NOD/SCID mice; assay type: in vivo; settings: 20 mg/kg i.p. every day for 3 weeks
# Description: FIGS. 8A-8C show the MB5 effect on the growth of DU145 tumor xenografts in NOD/SCID mice Viable DU145 cells (5×10^6) were injected to the flank of NOD/SCID mice. After tumor reached 100 mm^3, mice were injected via i.p. with DMSO or MB5 at a dose of 20 mg/Kg. Values are mean±S.E. ** p<0.01 compared with each control.
# Animal protocols were approved by the Institutional Animal Care and Use Committee at the University of Toledo Health Science Campus. Tumor xenografts were established by subcutaneous injection of 5×10^6 DU145 cells into two flanks of 6-week-old female NOD/SCID mice (Charles River). When the tumors reached an average volume of 100 mm^3, mice were injected intraperitoneally with DMSO or MB5 (at doses of 20 mg/kg body weight) every day for 3 weeks.
# ERK in LLC-PK1 cells = assay: Western blot of activated-ERK in LLC-PK1 cells; assay type: cell-based, pig; settings: pretreated 30 min, ouabain 1 nM for 1 h
# Description: LLC-PK1 cells were serum-starved overnight, washed and pretreated with Ferulic acid (A) for 30 min. Both control and compounds-pretreated cells were exposed to ouabain (1 nM) for 1 h. Cell lysates were collected, separated by SDS-PAGE and probed for activated-ERK and total-ERK. A representative western blot is shown. The quantitative data from three to four separate experiments were presented. (***, p<0.001 vs control; #, p<0.05 vs Oua).
# The experiments were done as in FIG. 6D. The quantitative data from four separate experiments were presented. (***, p<0.001 vs control; ## #, p<0.001 vs Oua).
# (§3) Cells were washed with PBS and solubilized in modified ice-cold radioimmune precipitation assay buffer, and subjected to Western blot analysis. Protein signals were detected using an ECL kit and quantified using ImageJ.
# Src in LLC-PK1 cells = assay: Cell-based Src activation assay, LLC-PK1 cells; parameters: species or system pig; settings: 20 μM OA
# Description: (§4) The second assay uses another pair of cell lines, LL-A416P-4 and LL-A420P-20. These cells were rat α1 A416P and A420P mutant-rescued PY-17 cells.
# The pig kidney epithelia cells (LLC-PK1 cells) were obtained from ATCC and maintained in Dulbecco's modified Eagle's medium (DMEM) in the presence of 10% FBS, 100 units/ml penicillin, and 100 μg/ml streptomycin in a 5% CO2 humidified incubator. To eliminate the confounding effect of growth factors in the serum, cells were serum starved over night before experiments.
# (§5) Referring now to FIG. 3A, cells were treated with indicated concentration of ouabain for 5 min, and total cell lysates were analyzed for pY418 and total Src. […] Values are mean±S.E. of at least three independent experiments. * p<0.05 compared with each control.
# as §3
# [4] = test system: Src in LL-A416P-4 cells (rat α1 A416P mutant-rescued PY-17 cells); assay: Cell-based Src activation assay, LL-A416P-4 cells; settings: ouabain 10 min
# Description: as §4
# as §5, with “Cell (LL-A416P-4 and LL-A420P-20) based assay for agonist (ouabain): Cells were” for “Referring now to FIG. 3A, cells were”, “for 10” for “for 5”
# as §3
# [5] = test system: Src in LY-F286A-19 cells (F286A mutant Na/K-ATPase); assay: Cell-based Src activation assay, LY-F286A-19 cells; settings: ouabain 10 min
# Description: (§6) The third assay uses other two cell lines (LY-I279A-3, LY-F286A-19), where the expressed I279A or F286A mutant Na/K-ATPase was defective in conformational transition (I279A and F286A mutants were defective in E1 to E2 and E2 to E1 conformational transition, respectively). […] Cell (LY-I279A-3 and LY-F286A-19) based Assay for agonist (ouabain): Cells were treated with indicated concentration of ouabain for 10 min, and total cell lysates were analyzed for pY418 and total Src. […] Values are mean±S.E. of at least three independent experiments. * p<0.05 compared with each control.
# as §3
# [6] = test system: Src in PY-17 cells (LLC-PK1 derived α1 knockdown); assay: Cell-based Src activation assay, α1 knockdown PY-17 cells; parameters: species or system pig; settings: Na/K-ATPase knockdown
# Description: (§7) To confirm that these agonists activate Src through the Na/K-ATPase, three complementary cell-based assays were established. One assay uses a LLC-PK1 derived al knockdown PY-17 cell, a control cell P11 (LLC-PK1transfected with empty vector), and another control cell AAC-19 (rat al-rescued PY-17 cells).
# as §4, §5, §3
# [7] = test system: Src in P11 cells (LLC-PK1 transfected with empty vector); assay: Cell-based Src activation assay, control cell P11; parameters: species or system pig
# Description: as §7, §5, §3
# [8] = test system: Src in AAC-19 cells (rat α1-rescued PY-17 cells); assay: Cell-based Src activation assay, control cell AAC-19
# Description: as §7, §5, §3
# [9] = test system: Src in LY-I279A-3 cells (I279A mutant Na/K-ATPase); assay: Cell-based Src activation assay, LY-I279A-3 cells; settings: ouabain 10 min
# Description: as §6, §3
smiles,measurement,setting,value
"O=c1c2cccc(O)c2oc2c(O)c(O)ccc12 [MB5, 3,4,5-trihydroxyxanthone]",effect on ouabain-induced activation of ERKs,ERKs in LLC-PK1 cells,blocked
same,identification as antagonist of receptor Na/K-ATPase/Src complex (ouabain antagonist),[1],positively identified as ouabain antagonists
same,identification as antagonist of receptor Na/K-ATPase/Src complex (ouabain antagonist),[1]; listed as MB-5,receptor antagonists
same,effect on ouabain-induced signal transduction,[2],antagonize
same,effect on ouabain-induced Src activation (Src pY418),[3],antagonizing effects
same,growth of DU145 tumor xenograft,DU145 tumor xenograft,inhibited the growth
"O=c1c2ccc(O)c(O)c2oc2c(O)c(O)ccc12 [MB7, 3,4,5,6-tetrahydroxyxanthone]",effect on ouabain-induced signal transduction,[2],antagonize
CC(C)(O)[C@@H]1CC[C@](C)([C@H]2[C@@H](O)C[C@@]3(C)[C@@H]4C[C@H](O[C@@H]5O[C@H](CO)[C@@H](O)[C@H](O)[C@H]5O)[C@H]5C(C)(C)[C@@H](O[C@@H]6OC[C@@H](O)[C@H](O)[C@H]6O)CC[C@@]56C[C@@]46CC[C@]23C)O1 [astragaloside IV],identification as antagonist of receptor Na/K-ATPase/Src complex (ouabain antagonist),[1],identified; also recorded: receptor antagonists
same,effect on ouabain-induced ERK activation,ERK in LLC-PK1 cells,inhibitory effects
COc1cc(/C=C/C(=O)CC(=O)/C=C/c2ccc(O)c(OC)c2)ccc1O [curcumin],identification as antagonist of receptor Na/K-ATPase/Src complex (ouabain antagonist),[1],receptor antagonists
O=C(O)[C@H](O)Cc1ccc(O)c(O)c1 [danshensu],identification as antagonist of receptor Na/K-ATPase/Src complex (ouabain antagonist),[1],identified
same,identification as antagonist of receptor Na/K-ATPase/Src complex (ouabain antagonist),[1]; listed as Tanshensu,receptor antagonists
COc1cc(/C=C/C(=O)O)ccc1O [ferulic acid],identification as antagonist of receptor Na/K-ATPase/Src complex (ouabain antagonist),[1],identified; also recorded: receptor antagonists
same,effect on ouabain-induced ERK activation,ERK in LLC-PK1 cells,inhibitory effects
CCCCCCCC/C=C\CCCCCCCC(=O)O [oleic acid],Src activation (pY418 / total Src),Src in LLC-PK1 cells,activated Src
C[C@@H]1O[C@@H](O[C@H]2C[C@@H](O)[C@]3(CO)[C@H]4[C@H](O)C[C@]5(C)[C@@H](C6=CC(=O)OC6)CC[C@]5(O)[C@@H]4CC[C@]3(O)C2)[C@H](O)[C@H](O)[C@H]1O [ouabain],Src activation (pY418 / total Src),[4],activated Src
same,Src activation (pY418 / total Src),[5],could no longer activate Src
same,Src activation (pY418 / total Src),[6],abolished their effects
same,Src activation (pY418 / total Src),[7],activate Src
same,Src activation (pY418 / total Src),[8],activate Src
same,Src activation (pY418 / total Src),[9],could no longer activate Src
Cc1coc2c1C(=O)C(=O)c1c-2ccc2c1CCCC2(C)C [tanshinone IIA],identification as antagonist of receptor Na/K-ATPase/Src complex (ouabain antagonist),[1],identified
same,effect on ouabain-induced Src activation (Src pY418),[3],antagonizing effects
Cc1coc2c1C(=O)C(=O)c1c-2ccc2c(C)cccc12 [tanshinone I],effect on ouabain-induced activation of ERKs,ERKs in LLC-PK1 cells,inhibition
same,identification as antagonist of receptor Na/K-ATPase/Src complex (ouabain antagonist),[1],identified
same,effect on ouabain-induced Src activation (Src pY418),[3],antagonizing effects
same,effect on ouabain-induced ERK activation,ERK in LLC-PK1 cells,inhibitory effects
